From PMC7686308, “Overcoming the blood–brain barrier by Annexin A1-binding peptide to target brain tumours” (British Journal of Cancer, 2020)
Values belong to the molecule of their own block, whether it stands above or below them. Ends that are not written are not given here.

Tests used:
[1] = system: ANXA1 exhibiting a free N-terminus; assay: FCS binding to ANXA1 with free N-terminus; design: species or system human; conditions: IF7C-A546, 37 °C, 1 h, increase in diffusion time
Experimental: (§1) A mixture of IF7C-A546 with Anxa1 or MC16 (50 μl) was loaded into each well of a 96-well plate and incubated at 37 °C for 1 h. FCS was performed with the MF20 analytical system (Olympus) using a 543 nm He–Ne laser for illumination. Each sample was measured five times with a data acquisition time of 10 sec per measurement. IF7C(RR) binding was defined as an increase in translational diffusion time relative to a control.
(§2) Fig. 2 Binding of IF7 to the ANXA1 N-terminal domain and full-length ANXA1 protein in vitro. a Plate binding assay of N-terminal biotinylated IF7C(RR) to human MC16 peptide and its mutants. Each synthetic MC16 and its mutant peptide (10 nmoles) was bound to maleimide-activated plastic well through its C-terminal cysteine residue. Biotinylated IF7C(RR) peptide (1 μg/mL) was added to each well and binding of biotinylated peptide was detected by peroxidase-conjugated streptavidin and peroxidase colour reaction. b FCS analysis of IF7 with ANXA1 (left) and with MC16 peptides (right) in solution. […] The proposed model was further validated by dG scoring, which was calculated using MOE software with GBVI/WSA, a program allows us to compare calculated and observed energetics.[59] The IF7 docking pose was calculated to be −3.7 kcal/mol.

[2] = system: N-terminally His-tagged ANXA1; assay: FCS binding to N-terminally His-tagged ANXA1; design: species or system human; conditions: IF7C-A546, 37 °C, 1 h, diffusion time
Experimental: as §1, §2

C6 cells = assay: Cytotoxicity on C6 cells (CellTiter Glo); assay type: cell-based, rat; conditions: C6, 2 days, CellTiter Glo, GraphPad Prism; for IC50: unit from plot axis
Experimental: (§3) Drug concentration (OM) Drug concentration ( nM) […]
(§4) Supplementary Fig 7 . Cytotoxicity of peptide-conjugated SN38, free peptide s and unconjugated SN-38 and irinotecan (CPT-11) on C6 and B16 cells cultured in vitro. Rat glioma C6 and mouse melanoma B16 cells were treated with reagents shown along the top panels at the concentration indicated and cultured for 2 days. Cell viability was determined by a CellTiter Glo (Promega) assay. The IC50 of each reagent was determined using GraphPad Prism program. N.D.: not determined.

B16 cells = assay: Cytotoxicity on B16 cells (CellTiter Glo); assay type: cell-based, mouse; conditions: B16, 2 days, CellTiter Glo, GraphPad Prism; for IC50: unit from plot axis
Experimental: as §3, §4

[3] = system: B16-Luc brain and subcutaneous tumours; assay: B16-Luc dual-tumour model in C57BL/6 mice; assay type: in vivo, mouse (C57BL/6); conditions: irinotecan 50 μmoles/kg i.v. daily, 6 days
Experimental: C6-Luc cells (5 × 10^4 suspended in 2 μl PBS) were injected into C57BL/6 mouse brain striatum using a stereotaxic frame as described previously.[21] Seven days later, mice underwent imaging for luciferase-expressing tumours. To do so, 100 μl luciferin (30 mg/ml PBS) was injected peritoneally. Mice were then anesthetised under isoflurane gas (20 ml/min) supplemented with oxygen (1 ml/min) and placed under a camera equipped with a Xenogen IVIS 200 imager at both the SBP and AIST animal facilities. Photon numbers were measured for 1–10 sec or for 1 min. For the dual-tumour model, C6-Luc cells were similarly injected into the brain of NOD-SCID mice. When a brain tumour became detectable by IVIS imager, C6-Luc cells (2 × 10^5 suspended in 100 μl PBS) were injected subcutaneously into the dorsal flank of the same mice. Photon numbers in brain and subcutaneous tumours were measured using the IVIS imager. The dual-tumour model was also produced using B16-Luc cells in the isogeneic C57BL/6 mouse. B16-Luc cells (5 × 10^4) were injected into brains of 8–10-weeks-old C57BL/6 female mice as described above for C6-Luc cells. When brain tumours became detectable, B16-Luc cells (2 × 10^5 cells) were injected subcutaneously into the dorsal flank of the same mouse.
IF7C(RR)-SN38 was injected intravenously through the tail vein into tumour-bearing mice once photon number of C6-Luc brain tumour reached 5 × 10^4, which usually occurred after 2 weeks. IF7C(RR)-SN38 (142 μg or 0.0567 μmoles) dissolved in 10 μl dimethylsulfoxide (DMSO) diluted with 100 μl of 50% Cremophore EL in ethanol plus 90 μl PBS was injected intravenously through the tail vein. As the average body weight of a mouse was 18 g, IF7C(RR)-SN38 dose per injection was 3.15 μmoles/kg. For B16-Luc brain tumours, IF7C(RR)-SN38 formulated with Cremophore EL was used at the dosage 7.0 μmoles/kg. Irinotecan (CPT-11), a water soluble SN38 prodrug, was dissolved in PBS and intravenously injected into mice at 50 μmoles /kg. In another set of experiments, brain tumour-bearing mice were treated with IF7C(RR)-SN38 (100 μg or 0.0412 μmoles) dissolved in 10 μl DMSO followed by dilution with 100 μl 10% Solutol HS15 in water. In that case, drug dosage was 2.5 μmoles/kg. Similarly formulated C(RR)-SN38 served as control.
Fig. 4 Effect of IF7C(RR)-SN38 on the dual-tumour model mice. a Dual-tumour model was established with C6-Luc cells in NOD-SCID mice. C6-Luc cells were grown both in brain and under the skin of mice. When tumours in brain and subcutaneous grew by showing photon number more than 2×10^4, IF7C(RR)-SN38 (3.15 μmoles/kg) was injected intravenously daily through tail vein for 9 days. b Effect of IF7C(RR)-SN38 on a dual-tumour model with B16-Luc melanoma cells in C57BL/6 mice. Growth of B16-Luc cells were monitored as in a similar manner as in a, followed by intravenous injection with either IF7C(RR)-SN38 (7.0 μmoles/kg), irinotecan (CPT-11) (50 μmoles/kg) or buffer control daily for 6 days. The drug was diluted in Cremophore EL. In each a and b, error bars denote means ± SEM. Statistical analysis was assessed by Student’s t-test.

Annexin A1 = target: T1, Annexin A1 (Homo sapiens, UniProt P04083); assay: QCM
T1 chain: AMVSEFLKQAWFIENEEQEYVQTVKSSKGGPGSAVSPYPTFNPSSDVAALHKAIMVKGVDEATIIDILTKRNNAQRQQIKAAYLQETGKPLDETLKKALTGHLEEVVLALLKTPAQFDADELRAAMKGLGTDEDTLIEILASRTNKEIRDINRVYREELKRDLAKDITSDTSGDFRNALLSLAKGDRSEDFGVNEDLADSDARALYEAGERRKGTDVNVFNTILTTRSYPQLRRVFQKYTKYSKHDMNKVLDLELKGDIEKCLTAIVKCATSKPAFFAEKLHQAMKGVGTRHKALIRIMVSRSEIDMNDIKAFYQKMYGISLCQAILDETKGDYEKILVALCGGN

[4] = target: T2, MC16 (Annexin A1 N-terminal peptide), tetrameric (Homo sapiens); assay: QCM
T2 chain: MAMVSEFLKQAWFIEC

Molecule: CCc1c2c(nc3ccc(OC(=O)N4CCC(N5CCCCC5)CC4)cc13)-c1cc3c(c(=O)n1C2)COC(=O)[C@]3(O)CC [Irinotecan]
logIC50 (C6 cells): 4.103
IC50 (C6 cells; Rattus norvegicus, 48 h): 12700 nM
logIC50 (B16 cells): 4.443
IC50 (B16 cells; Mus musculus, 48 h): 27700 nM
brain tumour growth (photon number) [3]: minimally suppressed brain tumour growth
subcutaneous tumour growth (photon number) [3]: suppressed subcutaneous tumour growth

Molecule: CCc1c2c(nc3ccc(O)cc13)-c1cc3c(c(=O)n1C2)COC(=O)[C@]3(O)CC [SN-38]
logIC50 (C6 cells): 1.433
IC50 (C6 cells): 27.1 nM
logIC50 (B16 cells): 1.499
IC50 (B16 cells): 31.6 nM

B1: IF7C(RR) peptide (peptide)
chain: IFLLWQRCRR
Kd (Annexin A1): 60.1 nM

Further lines, with some results ahead:

binding in solution to N-terminally His-tagged ANXA1 [2]: did not significantly increase
Molecule: IFLLWQRCRR [IF7C(RR), IF7 with C-terminal cysteine extended by two arginines]
binding in solution to untagged ANXA1 [1]: increased significantly compared to the control

Kd [4]: 247 nM
B2: IF7C(RR) peptide (peptide)
chain: IFLLWQRCRR
modifications: not fully specified (residue 8); also: tetramer on 4-arm PEG via Cys
